According to ChEMBL document CHEMBL5357025, “Perceptual Modifying Compounds and Their Potential Therapeutic Applications in Neuropsychiatric Disorders” (ACS Med Chem Lett, 2024):

Legend:
[1] = Metabolic stability in pooled human liver microsomes assessed as intrinsic clearance at 1 uM preincubated with compound followed by NADPH addition and measured upto 45 mins by LC-MS/MS analysis; type: ADME, Microsome; conditions: read-out: CLH
[2] = Metabolic stability in pooled human liver microsomes assessed as half-life at 1 uM preincubated with compound followed by NADPH addition and measured upto 45 mins by LC-MS/MS analysis; type: ADME, Microsome

SMILES	microsomal CLint at 1 µM [1] [µL/min/mg]	half-life at 1 µM [2] [min]
CCN(CC)C(=O)[C@@H]1C=C2c3cccc4[nH]c(Br)c(c34)C[C@H]2N(C)C1	56.3	24.6
[2H]c1[nH]c2cccc3c2c1C[C@@H]1C3=C[C@@H](C(=O)N(CC)CC)CN1C	17.8	77.7
[2H]c1[nH]c2c([2H])c([2H])c([2H])c3c2c1C[C@@H]1C3=C[C@@H](C(=O)N(CC)CC)CN1C	16.7	82.8
[2H]C([2H])([2H])N1C[C@H](C(=O)N(CC)CC)C=C2c3cccc4[nH]c(Br)c(c34)C[C@H]21	49.4	28.1
[2H]C([2H])([2H])C([2H])([2H])N(C(=O)[C@@H]1C=C2c3cccc4[nH]c(Br)c(c34)C[C@H]2N(C)C1)C([2H])([2H])C([2H])([2H])[2H]	44.6	31.1
[2H]C([2H])([2H])C([2H])([2H])N(C(=O)[C@@H]1C=C2c3cccc4[nH]cc(c34)C[C@H]2N(C)C1)C([2H])([2H])C([2H])([2H])[2H]	17.2	80.8
[2H]C([2H])([2H])N1C[C@H](C(=O)N(C([2H])([2H])C([2H])([2H])[2H])C([2H])([2H])C([2H])([2H])[2H])C=C2c3cccc4[nH]c(Br)c(c34)C[C@H]21	38.8	35.7
[2H]c1c([2H])c2c3c(c(Br)[nH]c3c1[2H])C[C@@H]1C2=C[C@@H](C(=O)N(CC)CC)CN1C	52.6	26.3
